What was measured:
[1] = preliminary solubility studies; drug added with stirring until saturation of the lipid; Compritol 888 ATO (melted, 80 °C), Transcutol HP and Miglyol (room temperature); n = 3
Description: Increasing amounts of TCP were successively added, with stirring, until saturation of the lipid was achieved. The saturation point occurred when the excess of solid TCP persisted for more than 8 h. Each determination was carried out in triplicate (n = 3).

SH-SY5Y cell line = assay: Cell morphology visualization by microscope, SH-SY5Y; type: cell-based, human; details: 24 h incubation, 1 µM
Description: (§1) After the treatments, cell morphology and growth were assessed by contrast phase microscope Lionheart FX (Biotech, USA) with use of Gen5 software (Biotech, USA) and a Leica DMI 6000B microscope equipped with a Leica DFC350 FX camera and then analyzed with the Leica LAS X imaging software (v3.7.4).

Caco-2 cell line [2] = assay: Cell morphology visualization by microscope, Caco-2; type: cell-based; details: Caco-2, 24 h incubation, 10 µM
Description: as §1

Caco-2 cell line [3] = assay: MTT cell viability assay, Caco-2; type: cell-based; details: Caco-2, 24 h incubation, free peptide or conjugate at 10 µM, n = 3 or 6
Description: The MTT assay was conducted to determine metabolic activity of cells and assess cellular viability. Cells were maintained in culture incubated with DMEM further supplemented with 10% of heat-inactivated fetal bovine serum (FBS) and 1% penicillin and streptomycin at 37 °C in a controlled atmosphere of 5% CO2 (according to the ATCC recommendations). Before the experiment, SH-SY5Y cells and Caco-2 cell line were seeded in sterile, flat-bottom 96-well plates at the density of 18,000 cells per well and 6000 cells per well, respectively, and incubated for 24 h. […] Then the cells were incubated for 24 h and both negative and positive control were included with incubation with culture media and sterilized water (5:1) and DMSO 10% to promote the cell lyses, respectively. After incubation, all media was aspirated and replaced with 100 μL of MTT solution (at 0.5 mg/mL). Then, cells were incubated for 3 h in the dark. […] The absorbance was measured at 570 nm in a microplate reader (Synergy HT, Biotech Instruments inc., Winoosk, USA and Tecan Infinite M200, Tecan group Ltd., Männedorf, Switzerland). All experiments were performed in triplicates and the relative cell viability (%) was compared to control cells and calculated using the following equation: Cell viability (% of sample)=Abs sample/Abs control×100

With `N[C@@H]1C[C@H]1c1ccccc1` (racemic) [TCP, (±)-trans-2-Phenylcyclopropylamine] the solubility in lipids [1] was “maximum solubility level in liquid lipid Transcutol HP”.

In the case of “KLALKLALKALKAALKLA-NH2 [MAP, model amphipathic peptide, cell-penetrating peptide]”, the “cell viability and morphology by microscope visualization” value (SH-SY5Y cell line) was “decreased substantial cell viability and showed some morphologic change with loss of normal cellular structure and round aspect”, the “cell viability and morphology by microscope visualization” value (Caco-2 cell line [2]) was “decrease of cell viability and substantial morphologic changes” and the “decrease of cell viability” value (Caco-2 cell line [3]) was 20%.

— publication PMC9266917, “New Peptide Functionalized Nanostructured Lipid Carriers with CNS Drugs and Evaluation Anti-proliferative Activity” (International Journal of Molecular Sciences, 2022)
